Molecules are shown by their SMILES.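 Values below derive from 48-hour exposures of cells grown in 96-well plates, with endpoints linearly interpolated between the two concentrations bracketing the appropriate inhibition level. Here, GI50 denotes the concentration required for 50% inhibition of growth.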 Active and inactive are the calls of the source. Cut-off read from the data, not from the text of the source: active = GI50 up to about 1.1 µM and inactive = higher.

Among the test systems are SF-295; NCI-H460; Malme-3M; SK-MEL-2; HCT-116; UO-31; LXFL 529; SN12C; HT-29; SNB-19; A549; KM-20L2; M14; NCI-H522; UACC-62; HCC 2998; OVCAR-4; ACHN.
Common to all, as to assay: inhibition of tumour cell growth, NCI panel, 48 h

`CCCCCCCCCC(=O)CC(=O)c1ccc(O)cc1O`: the GI50 is 25.6 µM (inactive) in the test with SF-295; 31.8 µM (inactive) with NCI-H460; 52.6 µM (inactive) in the test with Malme-3M; 18.6 µM (inactive) with SK-MEL-2; 26.1 µM (inactive) in the test on HCT-116; 19.7 µM (inactive) with UO-31. In addition, the GI50 is 30.5 µM (inactive) in the test with LXFL 529; 27.3 µM (inactive) in the test with SN12C; 35.9 µM (inactive) with HT-29; 37 µM (inactive) in the test on SNB-19; 31.3 µM (inactive) with A549; 38 µM (inactive) in the test on KM-20L2. Also, the GI50 was 22.1 µM (inactive) in the test with M14; 18.6 µM (inactive) in the test with NCI-H522; 21.2 µM (inactive) with UACC-62; 21.3 µM (inactive) in the test on HCC 2998; 42.1 µM (inactive) in the test on OVCAR-4; 28.6 µM (inactive) in the test with ACHN.
On to `CCOC(=O)C(Cc1c[nH]c2cc([N+](=O)[O-])ccc12)NS(=O)(=O)c1ccc2ccccc2c1` (stereo not given), for which the GI50 in the test with SF-295 was 17.3 µM (inactive); in the test on NCI-H460 it was 18.1 µM (inactive); in the test on Malme-3M, > 10 µM (inactive); in the test with SK-MEL-2 it was 17.4 µM (inactive); in the test on HCT-116, 17.2 µM (inactive); in the test on UO-31, 22.8 µM (inactive). The GI50 in the test with LXFL 529 is 17.5 µM (inactive); in the test on SN12C it was 18.7 µM (inactive); in the test with HT-29, 17.2 µM (inactive); in the test with SNB-19, 37.9 µM (inactive); in the test with A549, 30.6 µM (inactive); with KM-20L2 it was 19 µM (inactive). Besides, the GI50 in the test with M14 was 19 µM (inactive); in the test on NCI-H522 it was 16.3 µM (inactive); with UACC-62 it was 16.7 µM (inactive); with HCC 2998, 24.2 µM (inactive); with OVCAR-4, 10.9 µM (inactive); with ACHN, 23.6 µM (inactive).
Consider `Nc1nc(N)c(-c2ccccc2)c(CCC(=O)Nc2ccc(Cl)cc2)n1`, for which the GI50 in the test on SF-295, with NCI-H460, in the test with Malme-3M, in the test with SK-MEL-2, in the test with HCT-116 and in the test with UO-31 was > 100 µM (inactive) throughout. Also, the GI50 in the test with LXFL 529, with SN12C, in the test with HT-29, with SNB-19, in the test with A549 and in the test on KM-20L2 was > 100 µM (inactive) in each case. In addition, the GI50 with M14, in the test with NCI-H522, in the test on UACC-62, in the test with HCC 2998, in the test on OVCAR-4 and with ACHN was > 100 µM (inactive) each time.
Regarding `Cn1cc(NC(=O)c2cc(NC(=O)CCCCCCCCC(=O)Nc3cc(C(=O)Nc4cc(C(=O)NCCC(N)N)n(C)c4)n(C)c3)cn2C)cc1C(=O)NCCC(=N)N`, the GI50 was 23.3 µM (inactive) in the test on SF-295; 20.1 µM (inactive) with NCI-H460; 0.935 µM (active) with Malme-3M; 19.2 µM (inactive) in the test with SK-MEL-2; 20 µM (inactive) in the test with HCT-116; 28.2 µM (inactive) in the test on UO-31. Moreover, the GI50 in the test on LXFL 529 was 27.2 µM (inactive); in the test with SN12C, 23.8 µM (inactive); in the test on HT-29 it was 18.8 µM (inactive); with SNB-19, 21.4 µM (inactive); in the test on A549, 16.9 µM (inactive); in the test on KM-20L2, 19.7 µM (inactive). The GI50 was 22.3 µM (inactive) with M14; 8.99 µM (inactive) with NCI-H522; 20.7 µM (inactive) in the test on UACC-62; 24.7 µM (inactive) with HCC 2998; 34.7 µM (inactive) in the test with OVCAR-4; 17.9 µM (inactive) with ACHN.
As to `CCOc1ccc(NC2=NC(=O)C(CC(=O)Nc3ccccc3[N+](=O)[O-])S2)cc1` (stereo not given), the GI50 with SF-295, in the test on NCI-H460, with Malme-3M, in the test with SK-MEL-2, in the test on HCT-116 and in the test on UO-31 was > 100 µM (inactive) each time. The GI50 in the test on LXFL 529, with SN12C, with HT-29, in the test with SNB-19, in the test on A549 and with KM-20L2 was > 100 µM (inactive) throughout. Further, the GI50 in the test with M14 is > 100 µM (inactive); in the test with NCI-H522, > 100 µM (inactive); in the test on UACC-62 it was 94 µM (inactive); in the test with HCC 2998, > 100 µM (inactive); with OVCAR-4 it was > 100 µM (inactive); in the test on ACHN, > 100 µM (inactive).
With `CO[C@@]12CC(=O)/C(=C(O)\C=C\c3ccccc3)C(=O)[C@]1(OC)Cc1ccccc1O2`, the GI50 in the test with SF-295 was 29.8 µM (inactive); in the test on NCI-H460 it was 28.9 µM (inactive); in the test with Malme-3M it was 91 µM (inactive); with SK-MEL-2, 36.8 µM (inactive); in the test on HCT-116, 30.1 µM (inactive); in the test on UO-31, 40 µM (inactive). Moreover, the GI50 in the test on LXFL 529 is 33.7 µM (inactive); with SN12C, 30.6 µM (inactive); in the test with HT-29, 37.5 µM (inactive); in the test on SNB-19 it was 30.1 µM (inactive); in the test with A549 it was 25.7 µM (inactive); with KM-20L2, 22.4 µM (inactive). The GI50 with M14 was 28.1 µM (inactive); in the test on NCI-H522 it was 29.9 µM (inactive); with UACC-62, 21.9 µM (inactive); in the test with HCC 2998 it was 22.3 µM (inactive); with OVCAR-4, 53.8 µM (inactive); in the test on ACHN, 25.4 µM (inactive).
`O=[As](O)(O)c1cc(/N=N/c2ccc(-c3ccc(/N=N/c4cc([As](=O)(O)O)c(O)cc4O)cc3)cc2)c(O)cc1O`: the GI50 in the test with SF-295 was > 100 µM (inactive); in the test on NCI-H460, > 100 µM (inactive); in the test on Malme-3M, > 69.2 µM (inactive); with SK-MEL-2, > 100 µM (inactive); in the test on HCT-116, > 100 µM (inactive); with UO-31, > 100 µM (inactive). The GI50 is > 100 µM (inactive) in the test on LXFL 529; > 100 µM (inactive) in the test on SN12C; > 95.1 µM (inactive) in the test with HT-29; > 100 µM (inactive) in the test on SNB-19; > 100 µM (inactive) in the test with A549; > 100 µM (inactive) with KM-20L2. In addition, the GI50 in the test with M14 is > 53 µM (inactive); in the test with NCI-H522 it was > 100 µM (inactive); in the test on UACC-62, > 100 µM (inactive); with HCC 2998, > 100 µM (inactive); with OVCAR-4, > 42.9 µM (inactive); in the test on ACHN, > 100 µM (inactive).
As for `COc1cc2ccc3c4cc(OC)c(OC(C)C)cc4cnc3c2cc1OC`, the GI50 in the test with SF-295, with NCI-H460, in the test on Malme-3M, in the test with SK-MEL-2, in the test on HCT-116 and in the test with UO-31 was > 100 µM (inactive) throughout. The GI50 with LXFL 529, in the test on SN12C, with HT-29, in the test on SNB-19, with A549 and in the test with KM-20L2 was > 100 µM (inactive) in each case. Also, the GI50 in the test on M14, with NCI-H522, in the test on UACC-62, with HCC 2998, in the test with OVCAR-4 and in the test with ACHN was > 100 µM (inactive) in each case.
On to `COC1=CCC=C(C[C@@H]2NCCc3cc(OC)c(OC)cc32)C1`, for which the GI50 in the test with SF-295, in the test with NCI-H460, in the test with Malme-3M, in the test with SK-MEL-2, in the test on HCT-116 and in the test with UO-31 was > 100 µM (inactive) throughout. Also, the GI50 with LXFL 529, in the test with SN12C, in the test with HT-29, in the test with SNB-19, in the test on A549 and in the test on KM-20L2 was > 100 µM (inactive) throughout. Further, the GI50 with M14, with NCI-H522, with UACC-62, with HCC 2998, with OVCAR-4 and in the test with ACHN was > 100 µM (inactive) each time.
Regarding `COC(=O)C1=C(C)N(NC(=O)c2cccc(Cl)c2)C(C)(O)C12CCOC2=O` (stereo not given), the GI50 in the test with SF-295, in the test with NCI-H460, in the test on Malme-3M, in the test on SK-MEL-2, in the test on HCT-116 and in the test with UO-31 was > 100 µM (inactive) throughout. Also, the GI50 in the test on LXFL 529, in the test on SN12C, with HT-29, with SNB-19, in the test on A549 and in the test with KM-20L2 was > 100 µM (inactive) throughout. Moreover, the GI50 with M14, in the test with NCI-H522, with UACC-62, in the test on HCC 2998, in the test on OVCAR-4 and in the test on ACHN was > 100 µM (inactive) throughout.

The record behind these values is ChEMBL document CHEMBL1201862, “PubChem BioAssay data set” (2004).
